Experimental data from patent US8067424B2, “Selective inhibitors for cyclin-dependent kinases” (Emory University, priority 2007, dated 2011).
Where two headings read alike, the source gives them in different places.

Tests used:
JNK3 = JNK3 (Homo sapiens, UniProt P53779); assay: Kinase screen: JNK3 alpha 1 assay; assay type: biochemical; details: read-out: Mean Remaining Enzyme Activity (%)
Method: (§1) Generally, the same procedure was used for all assays. Since the total assay volume was 25.5 microliters, 0.5 microliters of inhibitors at 51× assay concentration were added to the plates before any other addition.
(§2) The basic procedure was to add 0.5 microliters inhibitor/control in DMSO to plate. Fifteen microliters of enzyme/substrate/buffer mix were added and incubated for 5 min. Ten microliters MgATP at the relevant concentration were added and incubated for 30 min. The assay was stopped by adding 5 microliters of 3% orthophosphoric acid. The assay was transferred to a p81 filter plate and read in a scintillation counter of 30 sec/well. Note that this assay procedure was not followed for MKK1, which instead involved a two-step assay, and PKC alpha, which required the addition of lipid vesicles.
JNK3 alpha 1 assay: JNK3 alpha 1(5-20 mU diluted in 50 mM Tris (pH 7.5), 0.1 mM EGTA, 1 mg/ml BSA, 0.1% b-mercaptoethanol) was assayed against ATF2 (activating transcription factor in a final volume of 25.5 μl in 50 mM Tris pH 7.5, 0.1 mM EGTA, 0.1% b-Mercaptoethanol, ATF2 (3 μM), 10 mM magnesium acetate and 0.05 mM [33P-g-ATP] (500-1000 cpm/pmole) and incubated for 30 min at room temperature. Assays were stopped by addition of 5 μl of 0.5 M (3%) orthophosphoric acid and then harvested onto P81 Unifilter plates with a wash buffer of 50 mM orthophosphoric acid.

NEK7 = NEK7 (Homo sapiens, UniProt Q8TDX7); assay: Kinase screen: NEK7 assay; assay type: biochemical; details: read-out: Mean Remaining Enzyme Activity (%)
Method: as §1, §2
(500-1000 cpm/pmole) and incubated for 30 min at room temperature. Assays were stopped by addition of 5 μl of 0.5 M (3%) orthophosphoric acid and then harvested onto P81 Unifilter plates with a wash buffer of 50 mM orthophosphoric acid.

AURORA C = AURORA C (Homo sapiens, UniProt Q9UQB9); assay: Kinase screen: Aurora C assay; assay type: biochemical; details: read-out: Mean Remaining Enzyme Activity (%)
Method: as §1, §2
Aurora C assay: Aurora C (5-20 mU diluted in 50 mM Tris pH 7.5, 0.1 mM EGTA, 0.1% b-mercaptoethanol, 1 mg/ml BSA) was assayed against a substrate peptide ([…]) (SEQ ID NO: 26) in a final volume of 25.5 μl containing 50 mM Tris pH 7.5, 0.05% b-mercaptoethanol, 300 μM substrate peptide, 10 mM magnesium acetate and 0.005 mM [33P-g-ATP] (50-1000 cpm/pmole) and incubated for 30 min at room temperature. Assays were stopped by addition of 5 μl of 0.5 M (3%) orthophosphoric acid and then harvested onto P81 Unifilter plates with a wash buffer of 50 mM orthophosphoric acid.

NCI-H460 = assay: cells; details: Homo sapiens
RXF 393 = assay: cells; details: Homo sapiens
SR = assay: cells; details: Homo sapiens
A549/ATCC = details: for Mean Optical Densities / Percent Growth: A549/ATCC
CCRF-CEM = assay: cells; details: Homo sapiens
SNB-75 = assay: cells; details: Homo sapiens
OVCAR-8 = assay: cells; details: Homo sapiens
EKVX = details: for Mean Optical Densities / Percent Growth: EKVX
[1] = K-562, log10 concentration −4.0
[2] = K-562, log10 concentration −5.0
[3] = K-562, log10 concentration −6.0
[4] = K-562, log10 concentration −7.0
[5] = K-562, log10 concentration −8.0
[6] = HCT-15, log10 concentration −4.0
[7] = HCT-15, log10 concentration −5.0
[8] = HCT-15, log10 concentration −6.0
[9] = HCT-15, log10 concentration −7.0
[10] = HCT-15, log10 concentration −8.0
[11] = OVCAR-4, log10 concentration −4.0
[12] = OVCAR-4, log10 concentration −5.0
[13] = OVCAR-4, log10 concentration −6.0
[14] = OVCAR-4, log10 concentration −7.0
[15] = OVCAR-4, log10 concentration −8.0

Chain of NEK7 (Q8TDX7 whole entry, species assumed): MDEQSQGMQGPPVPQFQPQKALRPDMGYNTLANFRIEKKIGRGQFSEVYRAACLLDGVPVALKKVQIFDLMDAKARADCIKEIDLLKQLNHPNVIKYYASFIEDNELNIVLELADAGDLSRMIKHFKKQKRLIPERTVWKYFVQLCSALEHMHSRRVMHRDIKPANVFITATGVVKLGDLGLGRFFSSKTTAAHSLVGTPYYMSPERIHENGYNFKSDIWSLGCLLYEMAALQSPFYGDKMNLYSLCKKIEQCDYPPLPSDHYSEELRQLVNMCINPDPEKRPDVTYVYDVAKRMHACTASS
Chain of JNK3 (P53779 1-422 isoform P53779-2, species assumed): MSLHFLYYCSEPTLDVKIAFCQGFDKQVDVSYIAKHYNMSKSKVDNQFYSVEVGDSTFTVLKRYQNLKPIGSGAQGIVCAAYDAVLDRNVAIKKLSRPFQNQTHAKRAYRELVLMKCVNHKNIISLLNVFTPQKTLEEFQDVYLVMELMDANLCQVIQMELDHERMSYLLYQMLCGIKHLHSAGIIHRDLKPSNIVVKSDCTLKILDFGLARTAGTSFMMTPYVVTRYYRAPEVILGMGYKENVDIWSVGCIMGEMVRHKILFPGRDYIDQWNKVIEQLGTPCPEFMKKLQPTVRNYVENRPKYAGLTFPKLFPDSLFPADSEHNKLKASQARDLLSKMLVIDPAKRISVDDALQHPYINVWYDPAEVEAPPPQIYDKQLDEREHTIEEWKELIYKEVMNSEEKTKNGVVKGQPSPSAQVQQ
Chain of AURORA C (Q9UQB9 whole entry): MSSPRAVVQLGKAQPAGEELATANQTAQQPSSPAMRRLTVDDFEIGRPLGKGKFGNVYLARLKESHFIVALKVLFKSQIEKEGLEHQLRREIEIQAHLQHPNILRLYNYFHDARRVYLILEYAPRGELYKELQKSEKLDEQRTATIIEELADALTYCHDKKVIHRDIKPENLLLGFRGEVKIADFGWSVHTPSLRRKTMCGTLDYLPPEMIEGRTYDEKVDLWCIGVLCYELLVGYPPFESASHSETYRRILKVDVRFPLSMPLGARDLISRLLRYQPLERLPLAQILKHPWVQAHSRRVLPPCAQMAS

Structure (SMILES): CC(C)c1cnn2c(NCc3ccccc3)cc(NCCCCCCCN)nc12 [BS-181]
- remaining activity at 10 µM (JNK3): 128%
- remaining activity at 10 µM (NEK7): 97%
- remaining activity at 10 µM (AURORA C): 98%

Structure (SMILES): CC(C)c1cnn2c(NCc3ccccc3)cc(N[C@@H](CO)[C@H](O)CO)nc12 [ICEC0318, (3S)-3-(7-(Benzylamino)-3-isopropylpyrazolo[1,5-a]pyrimidin-5-ylamino)butane-1,2,4-triol]
- TGI (A498; A498 (Renal Cancer)): 4.83E−7
- Mean Optical Densities (A498; A498, log10 concentration −4.0): 0.386
- Percent Growth (A498; A498, log10 concentration −4.0): −54%
- Mean Optical Densities (A498; A498, log10 concentration −5.0): 0.365
- Percent Growth (A498; A498, log10 concentration −5.0): −56%
- Mean Optical Densities (A498; A498, log10 concentration −6.0): 0.414
- Percent Growth (A498; A498, log10 concentration −6.0): −50%
- Mean Optical Densities (A498; A498, log10 concentration −7.0): 1.321
- Percent Growth (A498; A498, log10 concentration −7.0): 109%
- Mean Optical Densities (A498; A498, log10 concentration −8.0): 1.280
- Percent Growth (A498; A498, log10 concentration −8.0): 100%
- TGI (K-562; K-562 (Leukemia)): >1.00E−4
- Mean Optical Densities (K-562; [1]): 0.341
- Percent Growth (K-562; [1]): 17%
- Mean Optical Densities (K-562; [2]): 0.325
- Percent Growth (K-562; [2]): 15%
- Mean Optical Densities (K-562; [3]): 0.334
- Percent Growth (K-562; [3]): 16%
- Mean Optical Densities (K-562; [4]): 0.991
- Percent Growth (K-562; [4]): 79%
- Mean Optical Densities (K-562; [5]): 1.064
- Percent Growth (K-562; [5]): 86%
- GI50 (NCI-H460; NCI-H460): 0.258 µM
- CC50 (NCI-H460; NCI-H460, read-out: LC50): > 100 µM
- GI50 (RXF 393; RXF 393): 0.213 µM
- CC50 (RXF 393; RXF 393, read-out: LC50): 54.6 µM
- GI50 (SR): 0.0758 µM
- CC50 (SR; read-out: LC50): > 100 µM
- TGI (A549/ATCC; A549/ATCC (Non-Small Cell Lung Cancer)): >1.00E−4
- Mean Optical Densities (A549/ATCC; log10 concentration −4.0): 0.346
- Percent Growth (A549/ATCC; log10 concentration −4.0): 4%
- Mean Optical Densities (A549/ATCC; log10 concentration −5.0): 0.417
- Percent Growth (A549/ATCC; log10 concentration −5.0): 10%
- Mean Optical Densities (A549/ATCC; log10 concentration −6.0): 0.422
- Percent Growth (A549/ATCC; log10 concentration −6.0): 11%
- Mean Optical Densities (A549/ATCC; log10 concentration −7.0): 1.369
- Percent Growth (A549/ATCC; log10 concentration −7.0): 94%
- Mean Optical Densities (A549/ATCC; log10 concentration −8.0): 1.447
- Percent Growth (A549/ATCC; log10 concentration −8.0): 101%
- GI50 (CCRF-CEM): 0.342 µM
- TGI (HCT-15; HCT-15 (Colon Cancer)): >1.00E−4
- Mean Optical Densities (HCT-15; [6]): 0.268
- Percent Growth (HCT-15; [6]): 2%
- Mean Optical Densities (HCT-15; [7]): 0.286
- Percent Growth (HCT-15; [7]): 3%
- Mean Optical Densities (HCT-15; [8]): 0.481
- Percent Growth (HCT-15; [8]): 21%
- Mean Optical Densities (HCT-15; [9]): 1.262
- Percent Growth (HCT-15; [9]): 90%
- Mean Optical Densities (HCT-15; [10]): 1.354
- Percent Growth (HCT-15; [10]): 98%
- TGI (OVCAR-4; OVCAR-4 (Ovarian Cancer)): 1.45E−5
- Mean Optical Densities (OVCAR-4; [11]): 0.269
- Percent Growth (OVCAR-4; [11]): −25%
- Mean Optical Densities (OVCAR-4; [12]): 0.399
- Percent Growth (OVCAR-4; [12]): 5%
- Mean Optical Densities (OVCAR-4; [13]): 0.445
- Percent Growth (OVCAR-4; [13]): 10%
- Mean Optical Densities (OVCAR-4; [14]): 1.138
- Percent Growth (OVCAR-4; [14]): 95%
- Mean Optical Densities (OVCAR-4; [15]): 1.246
- Percent Growth (OVCAR-4; [15]): 109%
- GI50 (SNB-75; SNB-75): 0.222 µM
- CC50 (SNB-75; SNB-75, read-out: LC50): 1.6 µM
- GI50 (OVCAR-8; OVCAR-8): 0.34 µM
- CC50 (OVCAR-8; OVCAR-8, read-out: LC50): > 100 µM
- TGI (EKVX; EKVX (Non-Small Cell Lung Cancer)): >1.00E−4
- Mean Optical Densities (EKVX; log10 concentration −4.0): 0.740
- Percent Growth (EKVX; log10 concentration −4.0): 4%
- Mean Optical Densities (EKVX; log10 concentration −5.0): 0.817
- Percent Growth (EKVX; log10 concentration −5.0): 9%
- Mean Optical Densities (EKVX; log10 concentration −6.0): 0.841
- Percent Growth (EKVX; log10 concentration −6.0): 11%
- Mean Optical Densities (EKVX; log10 concentration −7.0): 1.830
- Percent Growth (EKVX; log10 concentration −7.0): 83%
- Mean Optical Densities (EKVX; log10 concentration −8.0): 2.035
- Percent Growth (EKVX; log10 concentration −8.0): 98%
